Legend:
Assay in all cases: Cell surface binding and uptake of granzyme B (fluorescence microscopy, flow cytometry)
Type in all cases: cell-based, human
[1] = system: Hsp70 membrane-negative Colo− tumor subline; settings: data not shown
Procedure: (§1) Cells (0.5×10^6) were fixed in paraformaldehyde (1% PFA in PBS) for 10 min, and permeabilized in PBS containing BSA (0.5%), NaN3 (0.1%), and saponin (0.1%). Then permeabilized cells were incubated either with the granzyme B-phycoerythrin conjugated monoclonal antibody HC2-PE (IgG1; Hölzel Diagnosbka, Cologne, Germany) with an isotype-matched IgG1 control antibody, at 4° C. for 1 h, in the dark. Following washing cells were analysed on a FACSCalibur instrument (Becton Dickinson, Heidelberg, Germany).
(§2) Stock solutions of camptothecin (4 mg/ml, Sigma, Munich, Germany) were diluted in DMSO and stored at 4° C. in the dark. Granzyme B (6 ng/ml, Hölzel Diagnostics, Cologne, Germany) solutions were freshly prepared directly before usage. Exponentially growing cells (0.5-1.5×10^6/ml) were incubated either with camptothecin at a final concentration of 4 μg/ml or with purified, enzymatically active granzyme B (10 ng/ml, 1 μg/ml, 2 μg/ml; 4 μg/ml) (Shi et. al. (2000) Methods in Enzymology 322, 125) for 10 min, and 30 min either at 4° C. or at 37° C. After washing in RPMI-1640 medium binding and uptake was determined in nonpermeabilized and permeabilized tumor cells by flow cytometry and fluorescence microscopy on a Axioscop 25 scanning microscope (Zeiss, Jena, Germany) equipped with a 40× objective and standard filters. Images were treated by multiplicative shading correction using the software Axiovison (Zeiss Vison, Jena, Germany). Granzyme B was visualized in red by using the HC2-PE antibody.
(§3) The preceding findings posed the question whether membrane-bound Hsp70 might enable specific binding and entry of granzyme B into the cytosol. […] A light microscopical analysis of untreated CX+ and Colo+ cells (control) at 4° C. versus 37° C. is shown in the upper row of each panel (FIG. 2A). The corresponding immunofluorescence microscopy of the cells at 4° C. and 37° C. is illustrated below (control). […] (data not shown). […] (FIG. 2B, upper graph). […] However, even at the highest concentration of 4 μg/ml, granzyme B was internalized much more pronounced by Hsp70 membrane-positive as compared to Hsp70-negative tumor cells (CX−/Colo−). Potential ion channels formed by Hsp70 may play a role in the mechansim of selective granzyme B uptake in Hsp70 membrane-positive tumor cells. Indeed, a particular ion conductance pathway was observed after incorporation of vesicles derived from purified phospholipids of Hsp70 membrane-positive (CX+) tumor sublines. This was not seen in vesicles obtained from Hsp70 membrane-negative (CX−) tumor cells (data not shown).

[2] = system: Hsp70 membrane-positive Colo+ tumor subline
Procedure: as §1, §2, §3

[3] = system: Hsp70 membrane-negative CX− tumor subline; settings: data not shown
Procedure: as §1, §2, §3

For granzyme B, the “granzyme B cell surface binding (immunofluorescence)” value (“granzyme B cell surface binding” for short) ([1]; 4° C.) was “either exhibited any granzyme B cell surface binding at 4 °C”, the “granzyme B uptake (immunofluorescence)” value ([1]; 37° C.) was “nor uptake at 37 °C” and the “granzyme B uptake, flow cytometry of permeabilized cells” value ([2]; 1 μg/ml granzyme B, 30 min, 37° C.) was “faint shift of the granzyme B peak to the right”. For the same substance, the “granzyme B uptake, flow cytometry of permeabilized cells” value ([2]; 2 μg/ml and 4 μg/ml granzyme B) was “dose-dependent increase in granzyme B uptake”, the “granzyme B cell surface binding” value ([2]; 15 min at 4° C., granzyme B 2 μg/ml) was “typical cell surface staining, was detected” and the “granzyme B uptake, cytoplasmic staining (immunofluorescence)” value ([2]; temperature shift 4° C. to 37° C., 30 min) was “resulted in uptake of granzyme B”. The “granzyme B cell surface binding” value ([3]; 4° C.) was “either exhibited any granzyme B cell surface binding at 4 °C” and the “granzyme B uptake (immunofluorescence)” value ([3]; 37° C.) was “nor uptake at 37 °C”.
